According to patent US20230063230A1, “NURR1 RECEPTOR MODULATORS” (priority 2019, published 2023):

What was measured:
[1] = system: Nurr1 in MN9D; assay: qPCR MN9D Nurr1; format: cell-based; conditions: cpds tested at 10 μM, analogs of compound 87
[2] = system: Th in MN9D; assay: qPCR MN9D Th; format: cell-based; conditions: cpds tested at 10 μM, analogs of compound 87

Structure (SMILES): CC(=O)SCCn1cc(C(C)(C)NC(=O)c2cccc(C#N)c2)nn1 [SP 196, S-2-(4-(2-(3-cyanobenzamido)propan-2-yl)-1H-1,2,3-triazol-1-yl)ethyl ethanethioate]
- fold induction at 10 µM [1]: > 4
- fold induction at 10 µM [2]: > 1.5
